Where a name gives a salt, the structure may show the parent alone.
biological target: T1, Human recombinant enteropeptidase (Homo sapiens, UniProt P98073); assay: Human enteropeptidase inhibitory activity (Test Example 1); format: biochemical; conditions: 3.3 μM test compound; inhibition rate from fluorescence intensity at 2 hours after the start of the reaction
T1 construct: purchased ITSI-Biosciences LLC #REN-260
Method: Human recombinant enteropeptidase (#REN-260, ITSI-Biosciences LLC) was diluted with an assay buffer (50 mM Tricine, pH 8.0, 0.01 (w/v) %, Tween 20, 10 mM CaCl2) to prepare a 24 mU/mL enzyme solution. Subsequently, 5FAM-Abu-Gly-Asp-Asp-Asp-Lys-Ile-Val-Gly-Gly-Lys(CPQ2)-Lys-Lys-NH2 (SEQ ID NO: 1, purity: 97.2%, CPC Scientific Inc.) was diluted with the assay buffer to prepare a 2.1 μM substrate solution. A test compound is dissolved in DMSO into a 1 mM solution, and the solution was diluted by 100-fold with the assay buffer to give a compound solution. To a 384-well black plate (#784076, Greiner Bio-One), 5 μL of the compound solution and 5 μL of the substrate solution were added and mixed, and 5 μL of the enzyme solution was then added to the mixture, followed by mixing to start the reaction. The fluorescence intensity was measured with a fluorescence plate reader EnVision (The Perkin-Elmer Corp.) at an excitation wavelength of 485 nm and a fluorescence wavelength of 535 nm. The same reaction as above except that the test compound was not contained was performed (test compound non-addition group). Furthermore, the same reaction as above except that the test compound and the enzyme were not contained was performed (control group). The inhibition rate was calculated using the fluorescence intensity at 2 hours after the start of the reaction by the following expression: Inhibition rate (%)=(1−((fluorescence intensity of test compound addition group)−(fluorescence intensity of control group))/((fluorescence intensity of test compound non-addition group)−(fluorescence intensity of control group)))×100

T1 sequence (P98073 whole entry): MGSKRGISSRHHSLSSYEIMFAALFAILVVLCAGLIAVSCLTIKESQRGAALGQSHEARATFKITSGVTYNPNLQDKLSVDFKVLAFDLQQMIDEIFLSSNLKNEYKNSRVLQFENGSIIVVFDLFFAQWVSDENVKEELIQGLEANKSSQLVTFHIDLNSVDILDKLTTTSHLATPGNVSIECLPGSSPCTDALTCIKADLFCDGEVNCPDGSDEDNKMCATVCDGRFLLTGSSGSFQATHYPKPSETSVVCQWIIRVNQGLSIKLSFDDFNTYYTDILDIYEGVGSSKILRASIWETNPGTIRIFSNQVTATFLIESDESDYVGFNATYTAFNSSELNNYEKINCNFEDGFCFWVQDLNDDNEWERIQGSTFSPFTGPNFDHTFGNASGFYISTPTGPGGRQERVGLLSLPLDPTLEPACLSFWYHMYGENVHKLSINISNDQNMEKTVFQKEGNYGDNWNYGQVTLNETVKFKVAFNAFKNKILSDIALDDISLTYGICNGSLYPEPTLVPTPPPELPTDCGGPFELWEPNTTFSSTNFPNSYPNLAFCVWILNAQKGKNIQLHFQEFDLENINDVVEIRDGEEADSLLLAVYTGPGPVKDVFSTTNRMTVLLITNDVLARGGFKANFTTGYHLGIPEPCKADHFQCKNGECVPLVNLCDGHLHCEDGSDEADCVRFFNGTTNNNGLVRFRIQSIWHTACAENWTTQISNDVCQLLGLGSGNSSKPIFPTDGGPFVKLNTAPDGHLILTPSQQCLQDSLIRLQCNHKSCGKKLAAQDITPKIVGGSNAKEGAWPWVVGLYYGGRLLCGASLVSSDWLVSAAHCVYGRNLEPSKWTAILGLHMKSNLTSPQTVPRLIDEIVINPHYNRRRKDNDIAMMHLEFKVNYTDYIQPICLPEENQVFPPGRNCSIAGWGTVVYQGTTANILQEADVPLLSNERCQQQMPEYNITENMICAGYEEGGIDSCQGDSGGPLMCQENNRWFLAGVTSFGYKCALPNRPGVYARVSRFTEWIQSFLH

| 3.3 μM Inhibition [%] | Compound |
| --- | --- |
| 98 | diethyl (4-(((10- carbamimidamido- 13-oxo-6,7,8,13- tetrahydro- dibenzo[b,f] [1,4]dioxecin-4- yl)carbonyl)amino) benzyl)phosphorate [Example 4] |

same assay, conditions: 3.3 μM test compound; inhibition rate from fluorescence intensity at 2 hours after the start of the reaction; read-out: 3.3 μM Inhibition

| inhibition at 3.3 µM [%] | Compound |
| --- | --- |
| 100 | N=C(N)Nc1ccc2c(c1)OCCCCOc1c(CCC(=O)N[C@@H](CC(=O)O)C(=O)O)cccc1OC2=O [Example 42, N-(3-(3-Carbamimidamido-16-oxo-6,7,8,9-tetrahydro-16H-dibenzo[b,f][1,4,8]trioxacyclododecin-11-yl)propanoyl)aspartic acid trifluoroacetate] |
| 100 | N=C(N)Nc1ccc2c(c1)CCCOc1c(cccc1C(=O)N[C@@H](CC(N)=O)C(=O)O)OC2=O [Example 17, N^~2^~-((10-carbamimidamido-13-oxo-6,7,8,13-tetrahydro-dibenzo[b,f] [1,4]dioxecin-4-yl)carbonyl)-L-asparagine] |
| 59 | N=C(N)c1ccc2c(c1)CCc1cc(CCC(=O)N[C@@H](CC(=O)O)C(=O)O)ccc1C(=O)O2 [Example 60, N-(3-(2-carbamimidoyl-6-oxo-11,12-dihydro-6H-dibenzo[b,f]oxocin-9-yl)propanoyl)-L-aspartic acid] |
| 102 | N=C(N)Nc1ccc2c(c1)CCCOc1c(cccc1C1=NOC(CC(=O)O)(C(=O)O)C1)OC2=O (stereo not shown) [Example 23, 3-(10-Carbamimidamido-13-oxo-6,7,8,13-tetrahydrodibenzo[b,f][1,4]dioxecin-4-yl)-5-(carboxymethyl)-4,5-dihydro-1,2-oxazole-5-carboxylic acid] |
| 100 | N=C(N)Nc1ccc2c(c1)CCCOc1c(cccc1C(=O)N(CCC(=O)O)[C@@H](CC(=O)O)C(=O)O)OC2=O [Example 138, N-((10-carbamimidamido-13-oxo-6,7,8,13-tetrahydro-dibenzo[b,f] [1,4]dioxecin-4-yl)carbonyl)-N-(2-carboxyethyl)-L-aspartic acid] |
| 101 | N=C(N)Nc1ccc2c(c1)CCCOc1c(cccc1C(=O)N[C@H](CC(=O)O)C(=O)O)OC2=O [Example 2, N-((10-Carbamimidamido-13-oxo-6,7,8,13-tetrahydrodibenzo[b,f][1,4]dioxecin-4-yl)carbonyl)-D-aspartic acid] |
| 101 | N=C(N)Nc1ccc2c(c1)CCCOc1c(cccc1C(=O)N[C@@H](Cc1ccc(O)cc1)C(=O)O)OC2=O [Example 10, N-((10-carbamimidamido-13-oxo-6,7,8,13-tetrahydro-dibenzo[b,f] [1,4]dioxecin-4-yl)carbonyl)-L-tyrosine] |
| 100 | N=C(N)Nc1ccc2c(c1)CCCOc1c(cccc1C(=O)N(CC(=O)O)Cc1ccccc1C(=O)O)OC2=O [Example 127] |
| 84 | N=C(N)c1ccc2c(c1)CCc1c(C(=O)N[C@@H](CC(=O)O)C(=O)O)cccc1C(=O)O2 [Example 62, N-((2-Carbamimidoyl-6-oxo-11,12-dihydro-6H-dibenzo[b,f]oxocin-10-yl)carbonyl)-L-aspartic acid trifluoroacetate] |
| 102 | N=C(N)Nc1ccc2c(c1)CCCOc1c(cccc1C(=O)NCS(=O)(=O)O)OC2=O [Example 27, (((10-carbamimidamido-13-oxo-6,7,8,13-tetrahydro-dibenzo[b,f] [1,4]dioxecin-4-yl)carbonyl)amino) methanesulfonic acid] |
| 100 | N=C(N)Nc1ccc2c(c1)CCCOc1c(cccc1C(=O)N(Cc1ccc(C(=O)O)cc1)[C@@H](CC(=O)O)C(=O)O)OC2=O [Example 143, N-((10-Carbamimidamido-13-oxo-6,7,8,13-tetrahydrodibenzo[b,f][1,4]dioxecin-4-yl)carbonyl)-N-(4-carboxybenzyl)-L-aspartic acid] |
| 99 | COc1ccc(C[C@H](NC(=O)c2c(CCC(=O)N(CC(=O)O)CC(=O)O)ccc3c2OCCCc2cc(NC(=N)N)ccc2C(=O)O3)C(=O)O)cc1 [Example 130, N-((3-(3-(bis(carboxymethyl)amino)-3-oxopropyl)-10-carbamimidamido-13-oxo-6,7,8,13-tetrahydro-dibenzo[b,f] [1,4]dioxecin-4-yl)carbonyl)-O-methyl-L-tyrosine] |
| 100 | N=C(N)Nc1ccc2c(c1)CCc1c(CCC(=O)N[C@@H](CC(=O)O)C(=O)O)cccc1OC2=O [Example 57, N-(3-(9-Carbamimidamido-6-oxo-11,12-dihydro-6H-dibenzo[b,f]oxocin-1-yl)propanoyl)-L-aspartic acid trifluoroacetate] |
| 102 | N=C(N)Nc1ccc2c(c1)CCCOc1c(cccc1C(=O)NCCC(=O)O)OC2=O [Example 88, N-((10-carbamimidamido-13-oxo-6,7,8,13-tetrahydro-dibenzo[b,f] [1,4]dioxecin-4-yl)carbonyl)-beta-alanine] |
| 101 | N=C(N)Nc1ccc2c(c1)CCCOc1c(cccc1C(=O)N(CC(=O)O)CC(=O)O)OC2=O [Example 14, 2,2′-(((10-carbamimidamido-13-oxo-6,7,8,13-tetrahydro-dibenzo[b,f] [1,4]dioxecin-4-yl)carbonyl)imino) diacetic acid] |
| 101 | N=C(N)Nc1ccc2c(c1)CCCc1c(cccc1C(=O)N[C@@H](CC(=O)O)C(=O)O)OC2=O [Example 30, N-((9-Carbamimidamido-6-oxo-6,11,12,13-tetrahydrodibenzo[b,g]oxonin-1-yl)carbonyl)-L-aspartic acid trifluoroacetate] |
| 101 | N=C(N)Nc1ccc2c(c1)CCCCc1c(cccc1C(=O)NC(CC(=O)O)CC(=O)O)OC2=O [Example 74, 3-(((3-carbamimidamido-14-oxo-5,7,8,14-tetrahydro-6H-dibenzo[b,h]oxecin-9-yl)carbony)amino)pentanedioic acid] |
| 71 | N=C(N)Nc1ccc2c(c1)CCCCc1c(CCC(=O)N[C@@H](CC(=O)O)C(=O)O)ccc(F)c1OC2=O [Example 41, N-(3-(3-carbamimidamido-12-fluoro-14-oxo-5,7,8,14-tetrahydro-6H-dibenzo[b,h]oxacin-9-yl)propanoyl)-L-aspartic acid] |
| 101 | N=C(N)Nc1ccc2c(c1)CCCOc1c(cccc1C(=O)N[C@@H](CS(=O)(=O)O)C(=O)O)OC2=O [Example 6, N-((10-Carbamimidamido-13-oxo-6,7,8,13-tetrahydrodibenzo[b,f][1,4]dioxecin-4-yl)carbonyl)-3-sulfo-L-alanine] |
| 99 | N=C(N)Nc1ccc2c(c1)COc1c(cccc1C(=O)N[C@@H](CC(=O)O)C(=O)O)OC2=O [Example 19, N-((9-Carbamimidamido-6-oxo-6,11-dihydrodibenzo[b,f][1,4]dioxocin-1-yl)carbonyl)-L-aspartic acid trifluoroacetate] |
| 101 | N=C(N)Nc1ccc2c(c1)CCCOc1c(cccc1C(=O)N[C@@H](CO)C(=O)O)OC2=O [Example 86, N-((10-carbamimidamido-13-oxo-6,7,8,13-tetrahydro-dibenzo[b,f] [1,4]dioxecin-4-yl)carbonyl)-L-serine] |
| 101 | N=C(N)Nc1ccc2c(c1)OCCCc1c(CCC(=O)N[C@@H](CC(=O)O)C(=O)O)cccc1OC2=O [Example 79, N-(3-(3-Carbamimidamido-14-oxo-7,8-dihydro-6H,14H-dibenzo[b,f][1,5]dioxecin-9-yl)propanoyl)-L-aspartic acid] |
| 101 | N=C(N)Nc1ccc2c(c1)OCCc1cc(CCC(=O)N[C@@H](CC(=O)O)C(=O)O)ccc1OC2=O [Example 50, N-(3-(9-Carbamimidamido-6-oxo-12,13-dihydro-6H-dibenzo[b,f][1,5]dioxonin-2-yl)propanoyl)-L-aspartic acid trifluoroacetate] |
| 102 | N=C(N)Nc1ccc2c(c1)CCCCOc1c(cccc1C(=O)N[C@@H](CC(=O)O)C(=O)O)OC2=O [Example 82, N-((11-carbamimidamido-14-oxo-7,8,9,14-tetrahydro-6H-dibenzo[b,f][1,4]dioxacycloundecin-4-yl)carbonyl)-L-aspartic acid] |
| 100 | N=C(N)Nc1ccc2c(c1)CCCOc1c(ccc(CCC(=O)N(CC(=O)O)CC(=O)O)c1C(=O)O)OC2=O [Example 129, 3-(3-(bis(carboxy-methyl)amino)-3-oxopropyl)-10-carbamimidamido-13-oxo-6,7,8,13-tetrahydro-dibenzo[b,f] [1,4]dioxecine-4-carboxylic acid] |
| 102 | COC(=O)[C@H](CS(=O)(=O)O)NC(=O)c1cccc2c1OCCCc1cc(NC(=N)N)ccc1C(=O)O2 [Example 7, 10-carbamimidamido-4-(((2R)-1-methoxy-1-oxo-3-sulfopropan-2-yl)carbamoyl)-13-oxo-6,7,8,13-tetrahydro-dibenzo[b,f] [1,4]dioxecine] |
| 100 | N=C(N)Nc1ccc2c(c1)CCCOc1c(cccc1C(=O)N(CC(=O)O)C(CC(=O)O)CC(=O)O)OC2=O [Example 106, 3-(((10-Carbamimidamido-13-oxo-6,7,8,13-tetrahydrodibenzo[b,f][1,4]dioxecin-4-yl)carbonyl) (carboxymethyl)amino)pentanedioic acid] |
